Data: patent publication US8148391B2 (Cephalon, Inc., priority 2006, dated 2012)
Where two headings read alike, the source gives them in different places. Blank lines part the entries; values can stand above or below the compound they belong to.

Assays:
[1] = target: T1, baculovirus-expressed ALK (Homo sapiens, UniProt Q9UM73); test: ALK Kinase Assay (ELISA-type, time-resolved fluorescence); format: biochemical
T1 construct: host or cells: baculovirus expression system
Outline: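 Wells were coated with phospholipase C-γ at 10 μg/mL in Tris-buffered saline. Adding 30 ng/ml enzyme started the reaction, which ran at 37° C for 15 minutes before Eu-N1 PT66 antibody detection. Percent inhibition versus log10 concentration gave IC50 by variable-slope fit.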

[2] = target: T2, c-Met (cytoplasmic domain) (Homo sapiens, UniProt P08581); test: c-Met Kinase Assay (same methods as for ALK, with modifications); format: biochemical
T2 construct: 10 ng/mL c-Met (cytoplasmic domain, Invitrogen Corporation #PV3143); purchased Invitrogen Corporation PV3143
T2 sequence (P08581 956-1390 limits assumed): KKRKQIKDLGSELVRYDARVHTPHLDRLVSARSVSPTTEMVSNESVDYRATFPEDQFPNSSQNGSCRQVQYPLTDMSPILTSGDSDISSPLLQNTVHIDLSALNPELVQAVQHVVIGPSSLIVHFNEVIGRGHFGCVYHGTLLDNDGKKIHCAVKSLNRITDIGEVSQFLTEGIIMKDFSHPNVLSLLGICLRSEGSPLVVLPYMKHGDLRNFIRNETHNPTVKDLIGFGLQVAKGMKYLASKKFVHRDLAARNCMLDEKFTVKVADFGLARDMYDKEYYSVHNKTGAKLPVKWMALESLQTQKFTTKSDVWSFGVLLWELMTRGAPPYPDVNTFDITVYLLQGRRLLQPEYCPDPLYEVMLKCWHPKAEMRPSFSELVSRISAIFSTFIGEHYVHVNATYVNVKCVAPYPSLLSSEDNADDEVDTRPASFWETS
Outline: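 Steps: coat wells with PLC-γ (10 μg/mL, Tris-buffered saline); add 10 ng/mL c-Met cytoplasmic domain to initiate; incubate 15 min, 37° C; detect phosphoproduct via Eu-N1 PT66 antibody.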

[3] = 1 μM ATP (Km level), 30 ng/ml ALK, 37° C., 15 minutes, read-out: ALK Activity (ALK kinase inhibition, IC50 class)
[4] = 1 μM ATP (Km level), 10 ng/mL c-Met, read-out: cMet Activity (c-Met kinase inhibition, IC50 class)
[5] = 1 μM ATP (Km level), read-out: ALK Activity (ALK Kinase Inhibition, IC50)
[6] = 1 μM ATP (Km level), read-out: cMet Activity (c-Met Kinase Inhibition, IC50)
[7] = ALK kinase inhibition, 1 μM ATP (Km level), read-out: ALK Activity
[8] = c-Met kinase inhibition, 1 μM ATP (Km level), read-out: cMet Activity

T1 sequence (Q9UM73 19-1620): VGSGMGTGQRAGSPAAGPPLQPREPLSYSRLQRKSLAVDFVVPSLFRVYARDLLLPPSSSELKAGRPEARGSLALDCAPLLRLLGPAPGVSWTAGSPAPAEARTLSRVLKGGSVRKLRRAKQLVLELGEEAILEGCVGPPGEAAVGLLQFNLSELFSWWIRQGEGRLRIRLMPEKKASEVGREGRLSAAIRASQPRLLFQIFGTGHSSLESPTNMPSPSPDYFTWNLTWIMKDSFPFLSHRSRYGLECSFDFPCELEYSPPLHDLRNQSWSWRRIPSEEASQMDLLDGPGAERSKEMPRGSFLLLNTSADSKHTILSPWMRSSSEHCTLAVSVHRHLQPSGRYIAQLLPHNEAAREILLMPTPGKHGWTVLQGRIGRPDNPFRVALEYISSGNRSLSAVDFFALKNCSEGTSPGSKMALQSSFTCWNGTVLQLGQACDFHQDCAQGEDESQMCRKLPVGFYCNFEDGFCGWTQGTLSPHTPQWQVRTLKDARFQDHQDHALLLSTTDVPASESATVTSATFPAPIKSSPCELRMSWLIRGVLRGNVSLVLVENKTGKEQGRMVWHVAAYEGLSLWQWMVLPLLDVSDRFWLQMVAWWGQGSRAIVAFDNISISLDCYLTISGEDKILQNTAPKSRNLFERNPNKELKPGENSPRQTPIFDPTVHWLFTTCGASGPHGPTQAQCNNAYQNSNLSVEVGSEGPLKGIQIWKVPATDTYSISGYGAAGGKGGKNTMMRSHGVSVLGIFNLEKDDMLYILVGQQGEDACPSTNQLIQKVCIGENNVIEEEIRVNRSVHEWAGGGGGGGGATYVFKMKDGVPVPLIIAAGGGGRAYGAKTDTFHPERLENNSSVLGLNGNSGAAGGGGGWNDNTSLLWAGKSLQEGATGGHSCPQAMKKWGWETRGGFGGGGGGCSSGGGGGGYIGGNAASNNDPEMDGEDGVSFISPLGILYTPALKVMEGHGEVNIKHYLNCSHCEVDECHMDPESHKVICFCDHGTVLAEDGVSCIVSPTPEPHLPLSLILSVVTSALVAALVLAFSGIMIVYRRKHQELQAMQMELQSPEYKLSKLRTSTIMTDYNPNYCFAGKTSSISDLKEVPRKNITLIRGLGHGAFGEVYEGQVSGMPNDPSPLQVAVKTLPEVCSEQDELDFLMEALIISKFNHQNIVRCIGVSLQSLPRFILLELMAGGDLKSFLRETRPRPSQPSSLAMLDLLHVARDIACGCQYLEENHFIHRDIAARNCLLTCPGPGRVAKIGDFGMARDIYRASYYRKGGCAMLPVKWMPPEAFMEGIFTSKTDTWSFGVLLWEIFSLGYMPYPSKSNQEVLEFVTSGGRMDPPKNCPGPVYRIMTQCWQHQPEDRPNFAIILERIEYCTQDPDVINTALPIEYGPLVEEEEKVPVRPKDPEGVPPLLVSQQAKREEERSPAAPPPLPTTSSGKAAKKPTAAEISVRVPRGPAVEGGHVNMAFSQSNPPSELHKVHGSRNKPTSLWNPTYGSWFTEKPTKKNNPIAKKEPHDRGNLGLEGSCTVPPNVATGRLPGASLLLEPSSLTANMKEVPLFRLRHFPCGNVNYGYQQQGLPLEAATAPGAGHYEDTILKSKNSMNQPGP

Compound: CCN1CCN(CC)c2cc(Nc3ncc(Cl)c(Nc4ccc5c(c4)N(CC)CCN(CC)C5=O)n3)ccc2C1 [Example 722, 8-[5-Chloro-2-(1,4-diethyl-2,3,4,5-tetrahydro-1H-benzo[e][1,4]diazepin-8-ylamino)-pyrimidin-4-ylamino]-1,4-diethyl-1,2,3,4-tetrahydro-benzo[e][1,4]diazepin-5-one]
IC50 [1, 5]: 100 to 1000 nM | IC50 [2, 6]: > 10000 nM

Compound: COc1cc2c(cc1Nc1ncc(Cl)c(N[C@H]3[C@@H](C(N)=O)[C@@H]4C=C[C@H]3C4)n1)C(C)(C)CCC(=O)N2 [Example 1312]
IC50 [1, 3]: < 100 nM | IC50 [2, 4]: > 10000 nM

Compound: COCCN1CCc2ccc(Nc3ncc(Cl)c(Nc4ccccc4-c4nccs4)n3)cc2CC1 [Example 979, 5-Chloro-N*2*-[3-(2-methoxy-ethyl)-2,3,4,5-tetrahydro-1H-benzo[d]azepin-7-yl]-N*4*-(2-thiazol-2-yl-phenyl)-pyrimidine-2,4-diamine]
IC50 [1, 5]: < 100 nM | IC50 [2, 6]: 100 to 1000 nM

Compound: CCCCNC(=O)c1ccccc1Nc1nc(Nc2ccc3c(c2)C(C)(C)CCC(=O)N3)ncc1Cl [Example 1027, N-Butyl-2-[5-chloro-2-(5,5-dimethyl-2-oxo-2,3,4,5-tetrahydro-1H-benzo[b]azepin-7-ylamino)-pyrimidin-4-ylamino]-benzamide]
IC50 [1, 3]: < 100 nM | IC50 [2, 4]: 1000 to 10000 nM

Compound: CNS(=O)(=O)c1ccccc1Nc1nc(Nc2ccc3c(c2)COCCN3C)ncc1Cl [Example 17, 2-[5-Chloro-2-(1-methyl-1,2,3,5-tetrahydro-benzo[e][1,4]oxazepin-7-ylamino)-pyrimidin-4-ylamino]-N-methyl-benzenesulfonamide]
IC50 [1, 7]: < 100 nM | IC50 [2, 8]: < 100 nM

Compound: CCNC(=O)c1cccc(F)c1Nc1nc(Nc2cc3c(cc2OC)CCN(CC(C)(F)F)CC3)ncc1Cl [Example 789, 2-{5-Chloro-2-[3-(2,2-difluoro-propyl)-8-methoxy-2,3,4,5-tetrahydro-1H-benzo[d]azepin-7-ylamino]-pyrimidin-4-ylamino}-N-ethyl-3-fluoro-benzamide]
IC50 [1, 5]: < 100 nM | IC50 [2, 6]: 1000 to 10000 nM

Compound: CNC(=O)c1ccccc1Nc1nc(Nc2ccc3c(c2)C2CN(C(C)C)CC3O2)ncc1Cl (centres unmarked) [Example 62, 2-[5-Chloro-2-(10-isopropyl-12-oxa-10-aza-tricyclo[6.3.1.0*2,7*]dodeca-2,4,6-trien-4-ylamino)-pyrimidin-4-ylamino]-N-methyl-benzamide]
IC50 [1, 7]: < 100 nM | IC50 [2, 8]: 100 to 1000 nM

Compound: COc1cc2c(cc1Nc1ncc(Cl)c(Nc3ccc(N4CCN(C)CC4)cc3OC)n1)CCN(CC(=O)N(C)C)CC2 [Example 770, 2-(7-{5-Chloro-4-[2-methoxy-4-(4-methyl-piperazin-1-yl)-phenylamino]-pyrimidin-2-ylamino}-8-methoxy-1,2,4,5-tetrahydro-benzo[d]azepin-3-yl)-N,N-dimethyl-acetamide]
IC50 [1, 5]: < 100 nM | IC50 [2, 6]: > 10000 nM

Compound: COc1cccc(C(=O)NCCC#N)c1Nc1nc(Nc2ccc3c(c2)CCCC(=O)N3C)ncc1Cl [Example 1062, 2-[5-Chloro-2-(1-methyl-2-oxo-2,3,4,5-tetrahydro-1H-benzo[b]azepin-7-ylamino)-pyrimidin-4-ylamino]-N-(2-cyano-ethyl)-3-methoxy-benzamide]
IC50 [1, 3]: > 10000 nM | IC50 [2, 4]: 1000 to 10000 nM

Compound: COCCN1C2CCC1c1cc(Nc3ncc(Cl)c(Nc4c(F)cccc4C(=O)OC(C)C)n3)ccc1C2 (centres unmarked) [Example 457, 2-{5-Chloro-2-[12-(2-methoxy-ethyl)-12-aza-tricyclo[7.2.1.0(2,7)]dodeca-2(7),3,5-trien-4-ylamino]-pyrimidin-4-ylamino}-3-fluoro-benzoic acid isopropyl ester]
IC50 [1, 7]: 100 to 1000 nM | IC50 [2, 8]: 100 to 1000 nM

Compound: COc1cc2c(cc1Nc1ncc(Cl)c(Nc3ccc(N4CCC(N5CCN(C)CC5)CC4)cc3OC)n1)CCN(CC(=O)N(C)C)CC2 [Example 819, 2-[7-(5-Chloro-4-{2-methoxy-4-[4-(4-methyl-piperazin-1-yl)-piperidin-1-yl]-phenylamino}-pyrimidin-2-ylamino)-8-methoxy-1,2,4,5-tetrahydro-benzo[d]azepin-3-yl]-N,N-dimethyl-acetamide]
IC50 [1, 5]: < 100 nM | IC50 [2, 6]: > 10000 nM

Compound: CC(=O)OCCN1CCN(C)c2cc(Nc3ncc(Cl)c(N[C@@H]4CCCC[C@H]4NS(C)(=O)=O)n3)ccc2C1 [Example 476, Acetic acid 2-{8-[5-chloro-4-((1R,2R)-2-methanesulfonylamino-cyclohexylamino)-pyrimidin-2-ylamino]-1-methyl-1,2,3,5-tetrahydro-benzo[e][1,4]diazepin-4-yl}-ethyl ester]
IC50 [1, 7]: < 100 nM | IC50 [2, 8]: 1000 to 10000 nM

Second part, the compound after the results:

IC50 [1, 3]: 100 to 1000 nM | IC50 [2, 4]: 1000 to 10000 nM
Compound: COc1cc2c(cc1Nc1ncc(Cl)c(Nc3cc(C(N)=O)ccc3OC)n1)CCN(CC(=O)N(C)C)CC2 [Example 1136, 3-[5-Chloro-2-(3-dimethylcarbamoylmethyl-8-methoxy-2,3,4,5-tetrahydro-1H-benzo[d]azepin-7-ylamino)-pyrimidin-4-ylamino]-4-methoxy-benzamide]

IC50 [1, 5]: > 10000 nM | IC50 [2, 6]: > 10000 nM
Compound: COc1ccc2c(c1Nc1ncc(Cl)c(Nc3ccccc3-c3nccn3C)n1)NC(=O)CCC2(C)C [Example 998, 9-{5-Chloro-4-[2-(1-methyl-1H-imidazol-2-yl)-phenylamino]-pyrimidin-2-ylamino}-8-methoxy-5,5-dimethyl-1,3,4,5-tetrahydro-benzo[b]azepin-2-one]

IC50 [1, 5]: 1000 to 10000 nM | IC50 [2, 6]: > 10000 nM
Compound: COc1cc2c(cc1Nc1ncc(Cl)c(Nc3c(OC)ccc4c3CN(S(C)(=O)=O)CC(=O)N4)n1)CCN(CC(=O)N(C)C)CC2 [Example 751, 2-{7-[5-Chloro-4-(4-methanesulfonyl-7-methoxy-2-oxo-2,3,4,5-tetrahydro-1H-benzo[e][1,4]diazepin-6-ylamino)-pyrimidin-2-ylamino]-8-methoxy-1,2,4,5-tetrahydro-benzo[d]azepin-3-yl}-N,Ndimethyl-acetamide]

IC50 [1, 5]: < 100 nM | IC50 [2, 6]: > 10000 nM
Compound: (1S,2S,3R,4R)-3-{5-Chloro-2-[6-(2-hydroxy-ethylamino)-1-methoxy-6,7,8,9-tetrahydro-5H-benzocyclohepten-2-ylamino]-pyrimidin-4-ylamino}-bicyclo[2.2.1]hept-5-ene-2-carboxylic acid amide [Example 960]

IC50 [1, 3]: 100 to 1000 nM | IC50 [2, 4]: 100 to 1000 nM
Compound: COCCN1CCc2ccc(Nc3ncc(Cl)c(Nc4c(C)cccc4OCC#N)n3)cc2CC1 [Example 1245, (2-{5-Chloro-2-[3-(2-methoxy-ethyl)-2,3,4,5-tetrahydro-1H-3-benzazepin-7-ylamino]-pyrimidin-4-ylamino}-3-methyl-phenoxy)-acetonitrile]

IC50 ([1]; ALK kinase inhibition, 1 μM ATP, read-out: ALK Activity): 100 to 1000 nM | IC50 ([2]; c-Met kinase inhibition, 1 μM ATP, read-out: cMet Activity): < 100 nM
Compound: CNC(=O)c1cccc(Cl)c1Nc1nc(Nc2ccc3c(c2)CNC(=O)CC3)ncc1Cl [Example 1796, 3-Chloro-2-[5-chloro-2-(3-oxo-2,3,4,5-tetrahydro-1H-benzo[c]azepin-8-ylamino)-pyrimidin-4-ylamino]-N-methylbenzamide]

IC50 [1, 7]: 1000 to 10000 nM | IC50 [2, 8]: 1000 to 10000 nM
Compound: CNS(=O)(=O)c1ccccc1Nc1nc(Nc2cccc3c2C(=O)NCCN3)ncc1Cl [Example 171, 2-[5-Chloro-2-(5-oxo-2,3,4,5-tetrahydro-1H-benzo[e][1,4]diazepin-6-ylamino)pyrimidin-4-ylamino]-N-methyl-benzenesulfonamide]
